# How the values were obtained:
# [1] = system: Bacillus cereus (ATCC 11778); assay: Antibacterial broth microdilution (MIC/MBC), B. cereus; type: cell-based; settings: Bacillus cereus, ATCC11778
# Procedure: (§1) In addition, the isolates were also evaluated for their antibacterial activity towards three strains including Bacillus cereus (ATCC 11778), Staphylococcus aureus (ATCC 6538) and Staphylococcus epidermidis (ATCC 12228) using penicillin G and gentamicin as the antibiotic controls (Table 5). […] Finally, the inhibitory activity of aromatase by using a CYP19 screening kit was investigated. The aromatase (also called estrogen synthase) is responsible for converting the non-aromatic ring A of androgens to estrogens, which are related to the proliferation of breast cancer cells.
# (§2) The tested strains, Staphylococcus aureus (S. aureus) ATCC6538, Staphylococcus epidermidis (S. epidermidis) ATCC12228, and Bacillus cereus (B. cereus) ATCC11778 were obtained from the American Type Culture Collection (ATCC).
# (§3) All tested species were grown on Mueller Hinton Agar (MHA) and incubated at 37 °C for 18–24 h. The bacterial colonies suspension in sterile normal saline was diluted until they reached a 1 × 10^6 CFC/mL concentration, which was then compared to the McFarland scale. This step provided a standard bacterial suspension (1 × 10^6 CFU/mL), which was used for the following assays.
# (§4) The broth microdilution technique was used for the MIC and MBC determination, which was expressed according to Clinical and Laboratory Standards Institute (CLSI) standard M07 guideline. The compounds were prepared as a stock solution by dissolving in dimethyl sulfoxide (DMSO) with the concentration ranging from 0.195 to 200 µg/mL. DMSO and penicillin G or gentamicin were used as normal and standard drug control. […] Three replicates were performed for each experiment.
# aromatase (CYP19) = target: T1, aromatase (CYP19) (Homo sapiens, UniProt P11511); assay: Aromatase (CYP19) inhibition assay; type: biochemical
# T1 construct: purchased
# T1 sequence (P11511 1-503): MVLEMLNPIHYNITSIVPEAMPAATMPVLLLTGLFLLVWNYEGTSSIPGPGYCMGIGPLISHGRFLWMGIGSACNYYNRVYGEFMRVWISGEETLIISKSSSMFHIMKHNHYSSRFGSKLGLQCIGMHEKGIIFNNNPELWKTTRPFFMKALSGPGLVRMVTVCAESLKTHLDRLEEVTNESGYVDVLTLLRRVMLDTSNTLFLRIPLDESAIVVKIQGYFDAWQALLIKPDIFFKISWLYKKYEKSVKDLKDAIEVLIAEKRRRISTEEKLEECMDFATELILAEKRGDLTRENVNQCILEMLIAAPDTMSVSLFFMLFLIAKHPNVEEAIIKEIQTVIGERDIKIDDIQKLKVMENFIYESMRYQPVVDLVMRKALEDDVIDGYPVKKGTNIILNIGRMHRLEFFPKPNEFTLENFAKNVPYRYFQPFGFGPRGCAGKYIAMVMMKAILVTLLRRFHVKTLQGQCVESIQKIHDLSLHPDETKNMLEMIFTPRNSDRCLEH
# Procedure: as §1
# The aromatase assay used a method previously designed by Stresser and co-workers.
# [2] = system: A549 (lung adenocarcinoma); assay: Cytotoxicity, MTT assay, A549; type: cell-based, human; settings: Homo sapiens, A549, A549 cell line, mean ± s.d. (n = 3)
# Procedure: (§5) The in vitro cytotoxicity assay toward a panel of human cancer cell lines of several clerodane diterpenoids has been well investigated. Thus, the isolates in adequate amounts were tested against MOLT-3 (acute lymphoblastic leukemia), HuCCA-1 (cholangiocarcinoma), HepG2 (hepatocellular carcinoma), A549 (lung adenocarcinoma), HeLa (cervical carcinoma), and MDA-MB-231 (triple negative breast cancer) cancer cell lines using the MTT and XTT methods. Doxorubicin and etoposide were used as positive controls.
# (§6) The MTT (3-(4,5-dimethylthiazol-2-yl)-2,5-diphenyltetrazolium bromide) assay was employed for the cytotoxic evaluation against five human cancer cell lines, including HepG2, A549, MDA-MB-231, HeLa, and HuCCA-1, while the XTT (2,3-bis-(2-methoxy-4-nitro-5-sulphenyl)-(2H)-tetrazolium-5-carboxanilide) method was used for MOLT-3 cancer cell.
# [3] = system: MDA-MB-231 (triple negative breast cancer); assay: Cytotoxicity, MTT assay, MDA-MB-231; type: cell-based, human; settings: Homo sapiens, MDA-MB-231, MDA-MB-231 cell line; MTT; mean ± s.d. (n = 3); read-out: IC50, MDA-MB-231
# Procedure: as §5, §6
# [4] = system: Staphylococcus epidermidis (ATCC 12228); assay: Antibacterial broth microdilution (MIC/MBC), S. epidermidis; type: cell-based; settings: ATCC12228
# Procedure: as §1, §2, §3, §4
# [5] = system: HeLa (cervical carcinoma); assay: Cytotoxicity, MTT assay, HeLa; type: cell-based, human; settings: Homo sapiens, HeLa, HeLa cell line; MTT; mean ± s.d. (n = 3); read-out: IC50, HeLa
# Procedure: as §5, §6
# [6] = system: HuCCA-1 (cholangiocarcinoma); assay: Cytotoxicity, MTT assay, HuCCA-1; type: cell-based, human; settings: Homo sapiens, HuCC-A1, HuCCA-1 cell line; MTT; mean ± s.d. (n = 3); read-out: IC50, HuCCA-1
# Procedure: as §5, §6
# [7] = system: Staphylococcus aureus (ATCC 6538); assay: Antibacterial broth microdilution (MIC/MBC), S. aureus; type: cell-based; settings: ATCC6538
# Procedure: as §1, §2, §3, §4
# [8] = system: MOLT-3 (acute lymphoblastic leukemia); assay: Cytotoxicity, XTT method, MOLT-3; type: cell-based; settings: Homo sapiens; MOLT-3 cell line; XTT; mean ± s.d. (n = 3); read-out: IC50, MOLT-3
# Procedure: as §5, §6
# [9] = system: HepG2 (hepatocellular carcinoma); assay: Cytotoxicity, MTT assay, HepG2; type: cell-based, human; settings: Homo sapiens, HepG2, HepG2 cell line; MTT; mean ± s.d. (n = 3); read-out: IC50, HepG2
# Procedure: as §5, §6
Structure (SMILES),MBC [1] [µg/mL],MIC [1] [µg/mL],inhibition at 12.5 µM (aromatase (CYP19); at a concentration of 12.5 µM) [%],Aromatase inhibitory activity (in words) (aromatase (CYP19); at the concentration up to 12.15 µM),IC50 [2] [µM],IC50 [3] [µM],MBC [4] [µg/mL],MIC [4] [µg/mL],IC50 [5] [µM],IC50 [6] [µM],MBC [7] [µg/mL],MIC [7] [µg/mL],IC50 [8] [µM],IC50 [9] [µM]
"COC1=CC(=O)C=C(OC)C1(O)CC(C)=O [Compound 20, 4-acetonyl-3,5-dimethoxy-p-quinol]",> 200,> 200,0,did not show activity,125 ± 4.7,24.4 ± 1.2,> 200,> 200,132 ± 3.8,111 ± 2.2,> 200,> 200,10 ± 3.5,122 ± 11.3
"C=CC(=C)CC[C@]1(C)[C@H](C)C[C@H](OC)[C@@]23C(=C[C@H](OC(=O)CC(C)C)C[C@@H]12)[C@@H](OC)O[C@H]3OC(C)=O [Compound 10, kurzipene A]",12.5,12.5,,,8.2 ± 0.8,10.4 ± 0.2,> 200,> 200,10.7 ± 0.6,7.5 ± 0.2,> 200,> 200,5 ± 1.4,13 ± 1
"C=CC(=C)CC[C@]1(C)[C@H](C)[C@@H](OC(=O)/C=C/c2ccc(O)cc2)[C@H](O)[C@@]23C(=C[C@H](OC(=O)CC(C)C)C[C@@H]12)[C@H](OC(C)=O)O[C@H]3OC(C)=O [Compound 14, Grewiifopene G]",,,,,2.6 ± 0.1,2 ± 0.1,,,2.4 ± 0.2,1.8 ± 0.2,,,1.3 ± 0.5,7.3 ± 0.6
"COc1cc([C@@H]2c3cc4c(cc3[C@@H](O[C@@H]3O[C@@H]5CO[C@@H](C)O[C@H]5[C@H](O)[C@H]3O)[C@H]3COC(=O)[C@H]23)OCO4)cc(OC)c1O [Etoposide, reference compound]",,,,,,,,,,,,,0.022 ± 0.004,33.5 ± 2.55
"C=CC(=C)CC[C@]1(C)[C@H](C)[C@@H](OC(C)=O)[C@H](OC)[C@@]23C(=C[C@H](OC(=O)CC(C)C)C[C@@H]12)[C@@H](OC(C)=O)O[C@H]3OC(C)=O [Compound 2, Grewiifopene B]",> 200,100,,,7.8 ± 0.5,9.3 ± 0.4,> 200,> 200,8.8 ± 0.9,8.7 ± 1.1,> 200,> 200,2.7 ± 0.4,37.1 ± 4.1
"COc1cccc2c1C(=O)c1c(O)c3c(c(O)c1C2=O)C[C@@](O)(C(=O)CO)C[C@@H]3O[C@H]1C[C@H](N)[C@H](O)[C@H](C)O1 [Doxorubicin, reference compound]",,,,,0.38 ± 0.02,2.09 ± 0.1,,,0.32 ± 0.01,0.83 ± 0.07,,,0.01 ± 0.002,0.52 ± 0.1
"C=CC(=C)CC[C@]1(C)[C@H](C)C[C@H](OC)[C@@]23C(=C[C@H](OC(=O)C(C)C)C[C@@H]12)[C@@H](OC(C)=O)O[C@H]3OC(C)=O [Compound 6, corymbulosin K]",,,,,5.8 ± 0.8,10.2 ± 0.6,,,7.3 ± 0.3,5.6 ± 1.2,,,3.2 ± 0.2,11.8 ± 1.1

# — paper PMC11401813, “Grewiifopenes A–K, bioactive clerodane diterpenoids from Casearia grewiifolia Vent” (Natural Products and Bioprospecting, 2024)
